Source: publication PMC9623576, “Semisynthesis and Evaluation of Anti-Inflammatory Activity of the Cassane-Type Diterpenoid Taepeenin F and of Some Synthetic Intermediates” (Journal of Natural Products, 2022)
“Also recorded” adds a separate entry of the source.

Legend:
Format in all cases: cell-based, murine
B16-F10 cells [1] = assay: Mitochondrial membrane potential, Rh123/PI flow cytometry; details: B16-F10, 72 h; for changes in mitochondrial membrane potential (MMP): IC50 and IC80 concentrations, Rh123/IP
Excerpt: In addition, the loss of part of MMP can be related to the secondary activation of the intrinsic apoptotic pathway as a final event in the extrinsic apoptosis mechanism. Further molecular studies will be necessary to confirm these conclusions.
The electrochemical gradient across the mitochondrial membrane was investigated by analytical flow cytometry, using dihydrorhodamine (DHR). DHR is oxidized in contact with living cells, forming a highly fluorescent product called rhodamine (Rh 123). The emitted fluorescence can be monitored by fluorescence spectroscopy using excitation and emission wavelengths of 500 and 536 nm, respectively.[37]−[39] […] After treatment, the culture medium was renewed by adding fresh medium with DHR to a final concentration of […]. Cells were incubated for 1 h at 37 °C in an atmosphere of 5% CO2 and 95% humidity and subsequently washed and resuspended in PBS with 5 μg/mL of PI. The fluorescence intensity was measured using a FACScan flow cytometer (fluorescence-activated cell sorter). The experiments were performed three times with two replicates per assay.

B16-F10 cells [2] = assay: Annexin V-FITC/propidium iodide apoptosis flow cytometry; details: for apoptotic effect: B16-F10, after 24 h of treatment
Excerpt: Cytometric FACS analysis using annexin V-FITC and PI staining was used to differentiate four cell populations (Figure 5): normal cells (annexin V^– and PI^–), early apoptotic cells (annexin V^+ and PI^–), late apoptotic cells (annexin V^+ and PI^+), and necrotic cells (annexin V^– and PI^+).[33]
To confirm the proapoptotic effect of compounds 16 and 22, annexin V and PI double staining was detected with flow cytometry. An early indicator of apoptosis is the translocation of the membrane phospholipid phosphatidylserine from the cytoplasmic interface to the external surface of the plasmatic membrane. The phospholipid phosphatidylserine that accumulates on the external plasmatic membrane can be detected by annexin V/PI is a fluorescent dye that binds to the nuclei of dead cells. Apoptosis was assessed by flow cytometry using a FACScan (fluorescence-activated cell sorter) flow cytometer (Coulter Corporation, Hialeah, FL, USA).[37],[38] For this assay, 5 × 10^4 B16-F10 cells were plated in 24-well plates with 1.5 mL of medium and incubated for 24 h. […] Cells were collected and resuspended in a binding buffer (10 mM HEPES/NaOH, pH 7.4, 140 mM NaCl, 2.5 mM CaCl2). Annexin V-FITC conjugate (1 μg/mL) was then added and incubated for 15 min at room temperature in darkness. Just before the analysis by flow cytometry, cells were stained with 5 μL of 1 mg/mL PI solution. In each experiment, approximately 10 × 10^3 cells were analyzed, and the experiment was duplicated twice.

B16-F10 cells [3] = assay: B16-F10 cell-cycle arrest and distribution, PI flow cytometry; details: B16-F10, 72 h
Experimental: The effects of the compounds 16 and 21 on the B16-F10 cell cycle were investigated using flow cytometry through propidium iodide staining. With this assay, we can determine a possible cytostatic effect related to the cytotoxic response and also measure DNA ploidy as well as alterations of cell-cycle profiles.[32]
The method used to quantify the amount of DNA in the different phases of the cell cycle (G0/G1, S, and G2/M) was performed by flow cytometry after propidium iodide staining (PI).[37] […] After treatment, the cells were washed twice with PBS, trypsinized, and resuspended in 1× TBS (10 mM Tris and 150 mM NaCl). After that, Vindelov buffer (100 mM Tris, 100 mM NaCl, 10 mg/mL Rnase, and 1 mg/mL PI, at pH 8) was added. Cells were stored on ice and, just before measurement, were stained with 20 μL of 1 mg/mL PI solution. Approximately, 10 × 10^3 cells were analyzed in each experiment. The experiments were performed three times with two replicates per assay. Finally, samples were analyzed using a flow cytometer, and the number of cells in each stage of the cell cycle was estimated by fluorescence-associated cell sorting (FACS) at 488 nm in an Epics XL flow cytometer (Coulter Corporation, Hialeah, FL, USA).

[4] = B16-F10, 48 h, IC50 concentration
[5] = B16-F10, 48 h, IC80 concentration
[6] = B16-F10, 72 h, IC50 concentration
[7] = B16-F10, 72 h, IC80 concentration

COC(=O)[C@]1(C)CCC[C@]2(C)c3cc(O)c(C=O)c(C)c3CC[C@@H]12 [Compound 21, (1R,4aS,10aR)-Methyl 7-formyl-6-hydroxy-1,4a,8-trimethyl-1,2,3,4,4a,9,10,10a-octahydrophenanthrene-1-carboxylate]
changes in mitochondrial membrane potential (MMP) (B16-F10 cells [1]): partial loss of the MMP
population of Rh123 negative cells versus control untreated cells (B16-F10 cells [1]; IC80 concentration): higher
early apoptosis (Q4, annexin V+ PI-) (B16-F10 cells [2]; [4]): 6.93%
late apoptosis (Q2, annexin V+ PI+) (B16-F10 cells [2]; [4]): 18.30%
total apoptosis (B16-F10 cells [2]; [4]): 25.23%
early apoptosis (Q4, annexin V+ PI-) (B16-F10 cells [2]; [5]): 5.73%
late apoptosis (Q2, annexin V+ PI+) (B16-F10 cells [2]; [5]): 27.13%
total apoptosis (B16-F10 cells [2]; [5]): 32.86%
early apoptosis (Q4, annexin V+ PI-) (B16-F10 cells [2]; [6]): 5.33%
late apoptosis (Q2, annexin V+ PI+) (B16-F10 cells [2]; [6]): 17.03%
total apoptosis (B16-F10 cells [2]; [6]): 22.36%
early apoptosis (Q4, annexin V+ PI-) (B16-F10 cells [2]; [7]): 23.56%
late apoptosis (Q2, annexin V+ PI+) (B16-F10 cells [2]; [7]): 17.66%
total apoptosis (B16-F10 cells [2]; [7]): 41.23%
apoptotic effect (B16-F10 cells [2]): did not exert a significant effect
cells in the G0/G1 phase (B16-F10 cells [3]; IC50 concentration): 71.87%
cells in the S phase (B16-F10 cells [3]; IC50 concentration): 27.95%
decrease of S phase cells compared to untreated control cells (B16-F10 cells [3]; IC50 concentration): 11.26%
increase of G0/G1 cells over untreated control cells (B16-F10 cells [3]; IC50 concentration): 13.75%
cells in the G0/G1 phase (B16-F10 cells [3]; IC80 concentration): 70.55%
cells in the S phase (B16-F10 cells [3]; IC80 concentration): 29.45%
decrease of S phase cells compared to untreated control cells (B16-F10 cells [3]; IC80 concentration): 9.76%
increase of G0/G1 cells over untreated control cells (B16-F10 cells [3]; IC80 concentration): 12.43%

COC(=O)[C@]1(C)CCC[C@@]2(C)[C@H]1CC=C1C(C)=C(C(C)C)C(=O)C[C@@H]12 [Compound 16, (1R,4aR,10aR)-Methyl 7-isopropyl-1,4a,8-trimethyl-6-oxo-1,2,3,4,4a,4b,5,6,10,10a-decahydrophenanthrene-1-carboxylate]
changes in mitochondrial membrane potential (MMP) (B16-F10 cells [1]): did not cause any loss of the mitochondrial membrane potential; also recorded: did not produce any changes in MMP
early apoptosis (Q4, annexin V+ PI-) (B16-F10 cells [2]; [4]): 3.73%
late apoptosis (Q2, annexin V+ PI+) (B16-F10 cells [2]; [4]): 9.40%
total apoptosis (B16-F10 cells [2]; [4]): 13.13%
early apoptosis (Q4, annexin V+ PI-) (B16-F10 cells [2]; [5]): 12.06%
late apoptosis (Q2, annexin V+ PI+) (B16-F10 cells [2]; [5]): 14.53%
total apoptosis (B16-F10 cells [2]; [5]): 26.6%
early apoptosis (Q4, annexin V+ PI-) (B16-F10 cells [2]; [6]): 0.06%
late apoptosis (Q2, annexin V+ PI+) (B16-F10 cells [2]; [6]): 7.63%
total apoptosis (B16-F10 cells [2]; [6]): 7.7%
early apoptosis (Q4, annexin V+ PI-) (B16-F10 cells [2]; [7]): 27.63%
late apoptosis (Q2, annexin V+ PI+) (B16-F10 cells [2]; [7]): 21.13%
total apoptosis (B16-F10 cells [2]; [7]): 48.76%
apoptotic effect (B16-F10 cells [2]): did not exert a significant effect
cells in the G0/G1 phase (B16-F10 cells [3]; IC80 concentration): 76.36%
cells in the S phase (B16-F10 cells [3]; IC80 concentration): 22.42%
decrease of S phase cells compared to untreated control cells (B16-F10 cells [3]; IC80 concentration): 16.79%
increase of G0/G1 cells over untreated control cells (B16-F10 cells [3]; IC80 concentration): 18.24%
